Patent EP0774249A2, “Topical composition containing specific flavanones” (UNILEVER PLC, priority 1995, dated 1997)

Test system: Human Epidermal Keratinocytes
Test: Transglutaminase (TG-1) assay, ELISA on cultured keratinocytes
Format: cell-based
Settings: 5 and 15 µg/ml

## O=c1cc(-c2ccc(O)cc2)oc2cc(O)cc(O)c12 [Apigenin, reference compound]
After 72 hour incubation
  Effects on Differentiation (TG-1): No effect
Observation of the cultures
  morphology of the cells / cytotoxic effect on keratinocytes: disrupted the cell membranes
